Laboratory results taken from patent US11045435B2, “Methods for treating ocular diseases” (NATUREWISE BIOTECH & MEDICALS CORPORATION, priority 2016, dated 2021).

How the values were obtained:
GFAP = GFAP levels in retina, Western Blot, streptozotocin-induced diabetic retinopathy; assay type: in vivo, Sprague-Dawley female rats
Method: After a 16-hour fasting, Sprague-Dawley female rats weighing 200-220 g received a single 60 mg/kg intraperitoneal injection of Streptozotocin (STZ; Sigma-Aldrich, St. Louis, Md.) in 10 mM sodium citrate buffer (pH 4.5; Sigma-Aldrich, St. Louis, Md.). Control rats were fasted and received the buffer solution alone. Rats with blood glucose levels higher than 375 mg/dL 7 days after receiving STZ were considered to be diabetic. Diabetic rats were treated with 1% COMPOUND I, 0.5% COMPOUND I or vehicle eye drops 3 time a day for 6 weeks.
After rats were sacrificed as described in last section, eyes were enucleated and bisected. Retinas were peeled from eyecups and immediately homogenized with 0.3 ml ice-cold lysis buffer ([…]; Sigma-Aldrich, St. Louis, Mo.), including 1 μl proteinase inhibitor cocktail ([…]; Sigma-Aldrich, St. Louis, Mo.). The insoluble material was removed by centrifugation at 12,000 g for 20 minutes. Final protein concentrations were determined using a protein assay kit (BCA, Santa Cruz Biotechnology, Santa Cruz, Calif.) according to manufacturer's specifications. The homogenate (80 μg) were separated by NuPAGE Bis-Tris Mini Gels (Invitrogen Life Technologies, Grand Island, N.Y.) and transferred to nitrocellulose membranes by iBlot Gel transfer Device (Invitrogen Life Technologies, Grand Island, N.Y.). The nitrocellulose membranes were treated by BenchPro 4100 Card Processing Station (Invitrogen Life Technologies, Grand Island, N.Y.) according to the instruction of WesternBreeze® Chromogenic Kit-Anti-Rabbit (Invitrogen Life Technologies, Grand Island, N.Y.). The primary antibodies used were anti-GFAP (1:200, Santa Cruz Biotechnology, Santa Cruz, Calif.) and glycealdehyde-3-phosphate dehydrogenase (GAPDH) (1:100), respectively. The Anti-rabbit IgG, AP-linked antibody was used as a second antibody. For quantitative evaluation of the western blot studies, the nitrocellulose membranes were scanned and the optical densities were quantified with analysis software (Pro-gel Analyzer software, Media Cybernetics, Rockville, Md.).

[1] = test system: Blood-Retinal Barrier Breakdown in Streptozotocin-Induced Diabetic Macular Edema; experiment: Evans blue leakage (blood-retinal barrier breakdown) in streptozotocin-induced diabetic macular edema; assay type: in vivo, Sprague-Dawley female rats
Method: After a 16-hour fast, Sprague-Dawley female rats weighing 200-220 g received a single 60 mg/kg intraperitoneal injection of Streptozotocin (STZ; Sigma-Aldrich, St. Louis, Md.) in 10 mM sodium citrate buffer (pH 4.5; Sigma-Aldrich, St. Louis, Md.). Control rats were fasted and received the buffer alone. Rats with blood glucose levels higher than 375 mg/dL 7 days after receiving STZ were considered to be diabetic. Body weight and blood glucose were detected every week. All experiments were performed in accordance with regulations specified by the Guide for the Care and Handling of Laboratory Animals (NIH Publication no. 85-23). For the treatments, rats were instilled with 0.5% and 1% COMPOUND I eye drops. Both eyes of all rats were instilled with 1 drop of ophthalmic solution 3 times a day for 6 weeks after diabetes production. Rats were treated with 0.5% and 1% COMPOUND I or vehicle solution eye drops 3 times a day for […] after glucose levels determination. Animal care and treatment were followed by the institutional guidelines. After induction of general anesthesia, the right jugular vein and right iliac artery were cannulated with 0.28- and 0.58-mm internal diameter polyethylene tubing, respectively, which were filled with heparinized saline (50 IU heparin/ml saline). Evans blue (Sigma-Aldrich, St. Louis, Md.) was injected through the jugular vein over 10 seconds at a dosage of 45 mg/kg. Immediately after Evans blue infusion, the rats turned visibly blue, confirming their uptake and distribution of the dye. Subsequently, at 15-minute intervals, 0.1 ml blood was drawn from the iliac artery for 2 hours to obtain the time-averaged plasma Evans blue concentration. After the dye had circulated for 120 minutes, the chest cavity was opened, and rats were perfused for 2 minutes via the left ventricle at 37° C. with 0.05 M, pH 3.5, citrate-buffered paraformaldehyde (Sigma-Aldrich, St. Louis, Md.). A pH of 3.5 was used to optimize binding of Evans blue to albumin and the perfusion solution was warmed to 37° C. to prevent vasoconstriction. Immediately after perfusion, both eyes were enucleated and dissected at the equator. The retinas were carefully dissected away under an operating microscope and thoroughly dried in vacuum equipment for 5 hours. The dry weight was used to normalize the quantitation of Evans blue leakage. Evans blue was extracted by incubating each retina in […] formamide (Sigma-Aldrich. St. Louis. Md.) for 18 hours at 70° C. […] The background-subtracted absorbance was determined by measuring each sample at both 620 nm, the absorbance maximum for Evans blue in formamide, and 740 nm, the absorbance minimum. The concentration of dye in the extracts was calculated from a standard curve of Evans blue in formamide. […]

## COc1ccc(COc2c(/C=C/C(=O)NO)ccc(OC)c2CC=C(C)C)cc1 [COMPOUND I]
GFAP; 0.5% eye drops tid 6 weeks
  GFAP level (Western Blot), DR animals as 100%: 70%
GFAP; 1% and 0.5% tid. for 6 weeks
  expression of GFAP proteins in retina vs diabetic control, in words: significantly suppressed
GFAP; 1.0% eye drops tid 6 weeks
  GFAP level (Western Blot), DR rats as 100%: 46%
[1]; 0.5% eye drops 3 times a day
  Evans blue leakage, diabetic vehicle control group as 100%: 68%
  Evans blue leakage, in words: partially
[1]; 1% eye drops 3 times a day
  Evans blue leakage, diabetic vehicle control group as 100%: 56%
[1]; 1% eye drops 3 times a day, listed as BMX
  Evans blue leakage / BRB breakdown, in words: completely restored
